No end group written: not given here.
Assays:
Meth A = assay: Tumor rejection (immunization-challenge) assay; tumor growth AUC and tumor rejection score (TRS); type: in vivo, BALB/cJ mice; settings: BALB/cJ mice immunized twice, CTLA4 blockade
Experimental: Each line represents tumor growth in a single mouse (n = 5 mice per group). AUC for each group is plotted in the panel on the right. Data are presented as mean ± SD. P values were calculated using 1-way ANOVA test adjusted for multiple comparisons (Tukey’s multiple comparison test). c Several truncated versions of the 18-mer Ccdc85c^MUT peptide were tested in tumor rejection assay. BALB/cJ mice were immunized and tumor challenged. Each line represents tumor growth in a single mouse. Although mice were immunized with individual peptides, the data for multiple peptides are grouped into one with the composition of the peptides shown on the right. The tumor rejection data for individual peptides are shown in Supplementary Fig. 1. Tumor rejection score (TRS) for each neoepitope is shown in the yellow box, where five represents a complete tumor protection and zero means no tumor rejection. d On the left panel, total Area Under the Curve (AUC) scores for each group in B are plotted. […] Error bars represent standard deviation (SD). […] P values were calculated using 1-way ANOVA test adjusted for multiple comparisons. […] Matched peak lists for the “heavy” and “light” ions were extracted and monitored, while only single charge y ions were plotted. See Methods for details. f Predicted (by NetMHC4.0) and measured IC50 values of the binding of candidate precise neoepitopes of Ccdc85c^MUT to K^d are shown. […] The affinities of the MS/TRS predicted neoepitopes were also measured for D^d and L^d; measured affinities were below the level of detection.
The mutation is heterozygous and the un-mutated as well as the mutated reads are detected in the transcripts. […] All mice were challenged with the Meth A cells, and tumor rejection was monitored (Fig. 1b upper panel). […]
Area under the curve (AUC) is used as a tool to measure tumor growth. Briefly, AUC was calculated by selecting “Curves & Regression” and then “Area under curve” from the “analyze” tool, using the Prism 5.0 (GraphPad). […]

splenic CD8 T cells = assay: ELIspot for interferon γ of splenic CD8 T cells from immunized mice; type: cell-based, BALB/c mice; settings: spleens seven days after second immunization; in vitro stimulation with immunizing 18-mer, 10 µM
Excerpt: BALB/c mice were immunized with 18-mer peptides containing Ccdc85c^MUT as well as Ccdc85c^WT as described in Methods. Spleens were harvested seven days after the second immunization and splenic CD8 T cells tested by ELIspot for interferon γ production in response to stimulation in vitro with the peptides used for immunization. […] Since the CD8 response detected in vitro was so modest, CD8 response as detected in vivo in the tumor microenvironment became our focus.
Supplementary Fig. 3. CD8 response to Ccdc85cMUT and Ccdc85cWT peptides. BALB/c mice were immunized twice at a weekly interval with 18-mer peptides containing Ccdc85cWT (left) or Ccdc85cMUT (right) as described in Methods. Spleens were harvested seven days after the second immunization and CD8 T cells stimulated in vitro with the peptides (10 µM concentration) used for immunization, as indicated. CD8 cells were analyzed for release of interferon g. Each dot represents a single mouse. The P values were calculated using two tailed t-test. Data are presented as mean values +/- SD. […]

L^d = assay: Measured peptide binding to L^d; design: species or system mouse
Experimental: (§1) Each line represents tumor growth in a single mouse (n = 5 mice per group). AUC for each group is plotted in the panel on the right. Data are presented as mean ± SD. P values were calculated using 1-way ANOVA test adjusted for multiple comparisons (Tukey’s multiple comparison test). c Several truncated versions of the 18-mer Ccdc85c^MUT peptide were tested in tumor rejection assay. BALB/cJ mice were immunized and tumor challenged. Each line represents tumor growth in a single mouse. Although mice were immunized with individual peptides, the data for multiple peptides are grouped into one with the composition of the peptides shown on the right. The tumor rejection data for individual peptides are shown in Supplementary Fig. 1. […] P values were calculated using 1-way ANOVA test adjusted for multiple comparisons. […] Matched peak lists for the “heavy” and “light” ions were extracted and monitored, while only single charge y ions were plotted. See Methods for details. f Predicted (by NetMHC4.0) and measured IC50 values of the binding of candidate precise neoepitopes of Ccdc85c^MUT to K^d are shown. […] The affinities of the MS/TRS predicted neoepitopes were also measured for D^d and L^d; measured affinities were below the level of detection.

D^d = assay: Measured peptide binding to D^d; design: species or system mouse
Experimental: as §1

H2-A^d = assay: MHC II cell-surface density assay, H2-A^d; type: cell-based, mouse; settings: NIH3T3 cells, flow cytometry 48 h after transduction; peptides adjusted to 12-mer with N-terminal glycines; MUT vs WT counterpart
Excerpt: (§2) In order to determine if any peptides within Ccdc85c^MUT could be presented by MHC II molecules, we analyzed the interaction of H2-A^d and H2-E^d with […], […] and IRPFETKVK as well as their wild type counterparts, using a cell-surface density assay. In this assay, β-chains of H2-Ab1^d or H2-Eb1^d are expressed in fusion with the peptide of interest and the amount of cell-surface MHC II, as a measure of intrinsic stability of MHC II, is quantified in engineered conditions. The measured cell-surface MHC density correlates well with the actual affinity of the peptide to MHC II. […] This was observed when CD4 depletion was carried out during the priming phase alone (as in Supplementary Fig. 2b), or throughout the entire experiment including the effector phase (i.e. post tumor challenge).
(§3) MHC II-peptide binding analysis was conducted by cell-surface density assay[18] with modifications. […] Cell-surface expression of H2-A^d or H2-E^d and cytoplasmic expression of GFP in GFP^+ MHC^+ cells were measured by flow cytometry 48 h after the transduction, using the following antibodies: H2-A^d, anti-mouse I-A^d mAb with the dilution of 1:10, 20 μl per sample (39-10-8, BioLegend) or mouse IgG3 isotype control with the dilution of 1:100, 10 μl per sample (m078-3, clone 6A3, Medical & Biological Laboratories Co. Ltd.) and goat anti-mouse IgG3-PE with the dilution of 1:20, 15 μl per sample (sc-3767, Santa Cruz Biotechnology, Inc.); H2-E, anti-I-E^d mAb with the dilution of 1:40, 10 μl per sample (115002, 14-4-4 S, Thermo Fisher) or mouse IgG2a isotype control with the dilution of 1:10, 10 μl per sample (m076-3, clone 6H3, Medical & Biological Laboratories Co. Ltd.) and goat F(ab’)2 Anti-mouse Ig-PE with the dilution of 1:20, 20 μl per sample (1012-09, Southern Biotechnology Associates Inc.). The ratio of MHC MFI to GFP MFI (MHC/GFP) for each MHC II-peptide combination was calculated and normalized to the MHC/GFP for respective MHC II allele-G9 peptide. On each assay date, MHC/GFP for each MHC II-peptide combination was measured for three or four wells and their average was determined. […]

H2-E^d = assay: MHC II cell-surface density assay, H2-E^d; type: cell-based, mouse; settings: NIH3T3 cells, flow cytometry 48 h after transduction; peptides adjusted to 12-mer with N-terminal glycines; MUT vs WT counterpart
Excerpt: as §2, §3

K^d = target: T1, K^d (Mus musculus, UniProt P01902); assay: Measured peptide binding to K^d
T1 sequence (P01902 22-368): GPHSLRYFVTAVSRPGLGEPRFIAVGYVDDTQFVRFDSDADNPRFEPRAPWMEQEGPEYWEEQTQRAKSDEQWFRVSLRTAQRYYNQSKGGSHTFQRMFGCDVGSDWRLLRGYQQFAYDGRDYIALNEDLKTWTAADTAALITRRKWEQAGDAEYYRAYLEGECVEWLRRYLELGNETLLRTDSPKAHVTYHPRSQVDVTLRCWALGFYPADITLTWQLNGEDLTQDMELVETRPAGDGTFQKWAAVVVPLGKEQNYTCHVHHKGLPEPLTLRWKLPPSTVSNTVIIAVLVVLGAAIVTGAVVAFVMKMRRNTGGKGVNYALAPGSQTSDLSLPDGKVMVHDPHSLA
T1 sequence (P01887 21-119 partner): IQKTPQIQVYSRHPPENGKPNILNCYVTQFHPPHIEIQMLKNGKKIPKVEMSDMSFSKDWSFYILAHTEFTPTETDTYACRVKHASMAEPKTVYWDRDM
Experimental: Each line represents tumor growth in a single mouse (n = 5 mice per group). AUC for each group is plotted in the panel on the right. Data are presented as mean ± SD. P values were calculated using 1-way ANOVA test adjusted for multiple comparisons (Tukey’s multiple comparison test). c Several truncated versions of the 18-mer Ccdc85c^MUT peptide were tested in tumor rejection assay. BALB/cJ mice were immunized and tumor challenged. Each line represents tumor growth in a single mouse. Although mice were immunized with individual peptides, the data for multiple peptides are grouped into one with the composition of the peptides shown on the right. The tumor rejection data for individual peptides are shown in Supplementary Fig. 1. Tumor rejection score (TRS) for each neoepitope is shown in the yellow box, where five represents a complete tumor protection and zero means no tumor rejection. d On the left panel, total Area Under the Curve (AUC) scores for each group in B are plotted. […] Error bars represent standard deviation (SD). The P values corresponding to the comparison of TRS = 0 with TRSs 5.0, 4.0–4.5 and 3.0–3.3 were respectively <0.0001, <0.0001 and 0.0002. P values were calculated using 1-way ANOVA test adjusted for multiple comparisons. On the right, peptides with the highest and the lowest TRS are shown. e Targeted MS-based detection of TYIRPFETKVK and YIRPFETKVK among MHC I peptides eluted from BMDCs pulsed with the 18-mer Ccdc85c^MUT. Heavy labeled synthetic peptides were spiked into the peptide samples; the labeled amino acid is marked with a bold character and the mutation is in red. Matched peak lists for the “heavy” and “light” ions were extracted and monitored, while only single charge y ions were plotted. See Methods for details. f Predicted (by NetMHC4.0) and measured IC50 values of the binding of candidate precise neoepitopes of Ccdc85c^MUT to K^d are shown. […] The affinities of the MS/TRS predicted neoepitopes were also measured for D^d and L^d; measured affinities were below the level of detection.

Sequence	tumor rejection (in words) (Meth A)	CD8 response (interferon γ ELIspot) (splenic CD8 T cells)	measured affinity for L^d (L^d)	measured affinity for D^d (D^d)	binding of Ccdc85c^MUT versus Ccdc85c^WT to H2-IA (MHC/GFP normalized to G9) (H2-A^d)	binding of Ccdc85c^MUT versus Ccdc85c^WT to H2-IE (MHC/GFP normalized to G9) (H2-E^d)	measured affinity for K^d (in words) (K^d)	IC50 (K^d; assay kind not described)
DPSSTYIRPLETKVKLLD [un-mutated peptide, un-mutated 18-mer peptide of Ccdc85c]	failed to elicit protection	no CD8 response						
TYIRPFETKVK			very low or undetectable	very low or undetectable	No significant difference	No significant difference	very low or undetectable	
YIRPFETKVK			very low or undetectable	very low or undetectable	No significant difference	No significant difference	very low or undetectable	
TYIRPFETKV [TYIRPFETKV]								0.247 µM
IRPFETKVK [truncated version of the 18-mer Ccdc85c^MUT peptide]					No significant difference	No significant difference		

From paper PMC8571378, “Reversion analysis reveals the in vivo immunogenicity of a poorly MHC I-binding cancer neoepitope” (Nature Communications, 2021)
